Assay results as given in patent US8846747B2, “Compounds and methods for altering lifespan of eukaryotic organisms” (University of Rochester, priority 2009, dated 2014).

Key:
DeaD strain BB579 = experiment: yeast Death of Daughters (DeaD) lifespan assay, reversal of nicotinamide (NAM) lifespan shortening; type: cell-based, S. cerevisiae (yeast); details: for average improvement, 250 nM to 1μM: fold improvement in DeaD lifespan (OD600 at 60 h normalized to no drug control), compound 250 nM to 1μM; for average improvement, 250 nM to 1μM / fold induction at 0.125 µM / average improvement, 0.5 to 100 nM: 0.75 mM NAM; for EC50 / fold induction at 0.125 µM: Saccharomyces cerevisiae; for EC50: BB579, read-out: C50 (concentration that yields half the maximal activity) by DeaD assay; for fold induction at 0.125 µM: BB579, compound 125 nM; for fold induction at 0.125 µM / average improvement, 0.5 to 100 nM: fold improvement in DeaD lifespan; for average improvement, 0.5 to 100 nM: compound 0.5 to 100 nM
Method: The C50 (50% maximal activity) is a measure of the efficacy of a compound as a LAC and is determined by quantifying the dose-response curve for each LAC by DeaD assay in the presence and absence of nicotinamide. The C50 is the concentration of LAC that yields half the maximal activity. Dose response curves will generally peak and then decline. The decline is most likely due to toxicity at higher LAC concentrations. The C50 is determined relative to the maximal lifespan extension (the peak value). C50 values are provided for C1-5.
The compounds listed in Table 1 of Example 3 were assessed for their anti-aging activities using the yeast Death of Daughters (DeaD) explicative lifespan assay. Specifically, the compounds were assessed for their capacity to reverse the lifespan shortening effect of exogenous nicotinamide (NAM), which is a known inhibitor of the anti-aging protein Sir2p (Anderson et al., 2003; Bitterman et al., 2002). These compounds were compared to the activities of known cluster 1 compounds, S3-5, and #3-11.
“Activity” here is defined herein as the fold improvement in DeaD lifespan in the presence of 0.75 mM NAM relative to lifespan in the absence of cluster 1 compounds, over a range of compound concentrations between 0.5 nm-1 μm. This “activity” value is a means of assessing the usefulness of a compound as a LAC. The assays were performed as follows. DeaD strain BB579 was grown overnight in a permissive (galactose-containing) medium to mid-log phase, and then diluted to an OD600 of 0.0001 in restrictive (glucose-containing) medium with 0.75 mM NAM and the compound to be tested. Cells were then incubated at 30° C. for 3 days, with shaking and OD600 measurement every 20 minutes. The OD600 reading after 60 hours in restrictive medium, normalized to the same measurement for the “no drug” control, was used as the number for comparison.
Five of the compounds with higher activity than S3-5 were selected for further study and were designated C1-1, C1-2, C1-3, C1-4, and C1-5 (see Table 2, Example 4). All data in FIGS. 1A(1)-(6) are from media containing 0.75 mM NAM. Note the different ranges of the X axes in FIGS. 1A(1)-(6)—very different C50 values for the compounds of the present invention compared the known C1 cluster compounds. […] All five had C50 values below 50 nM, while the C50 value for S3-5 was about 650 nM, and the C50 for S1-9 was about 350 nM.

[1] = system: strain FY839 (healthy wild-type); experiment: Toxicity of compounds by yeast growth assay; type: cell-based; details: FY839, inset in FIG. 2
Method: The toxicity of compounds C1-1, C1-2, C1-3, C1-4, and C1-5 in yeast was assessed by determining their effects on growth of a wild-type yeast strain. FIG. 2 is a graphical representation of the toxicity data. The yeast used was strain FY839 (healthy wild-type) growing in SCD. At 12 hours all were in log phase. […] This concentration is many-fold higher than the effective concentrations of these compounds as assessed by DeaD lifespan assays.

RAW 264.7 cells = experiment: LPS-induced TNF-α secretion from RAW 264.7 cells (ELISA); type: cell-based, murine; details: compound 1 micromolar, LPS 10 ng/ml for 6 hrs; FIG. 3
Method: FIG. 3. […] To obtain the data summarized in FIG. 3, RAW […] cells were incubated with Scrims (compounds of present invention) (1 uM), PI3K inhibitor positive control (LY-294002; 25 uM) or vehicle (DMSO) for 1 hr. LPS (10 ng/ml) was added to the medium. 6 hrs post LPS administration medium was collected and analyzed for TNFa levels using ELISA.
In vitro anti-inflammatory activity in RAW 264.7 cells (murine leukaemic monocyte macrophage cell line): Lipopolysaccharide (LPS)-induced secretion of cytokines from RAW cells is a recognized in vitro assay for anti-inflammatory drugs. The anti-inflammatory activities of C1-1, C1-2, C1-3, C1-4, and C1-5 in the RAW cell model. RAW cells exposed to LPS were incubated with each of the five molecules at 1 micromolar concentration. The PIK3 inhibitor LY-294002 was used at 25 micromolar as a positive control. […] LPS was administered at 10 ng/ml for 6-hrs. TNF-α levels were quantified by ELISA assay. Results are presented as % of control with standard deviations of three replicates.

SMILES	average improvement, 250 nM to 1μM (DeaD strain BB579)	fold induction at 0.125 µM (DeaD strain BB579)	also measured
CCCC(=O)C1C(=O)C(C(C)=O)C(=O)CC1CC(C)CCC (stereo not shown) [#3-11, reference compound]	1.30		
CCC(=O)C1C(=O)CC(C2CCCCC2)CC1=O (stereo not shown) [SRI# 22788, 1,3-cyclohexanedione, 2-propanoyl-5-cyclohexyl-]			EC50 (DeaD strain BB579): < 50 nM; toxic effects on growth at concentrations below 1 μM [1]: little or no toxic effects on growth; reduction of secreted TNF-α relative to vehicle treated cells (RAW 264.7 cells): exhibited anti-inflammatory activity
CC(=O)C1C(=O)CC(c2cccs2)CC1=O (stereo not shown) [SRI# 22933, 1,3-cyclohexanedione, 2-acetyl 5-[thien-2-yl]-]			EC50 (DeaD strain BB579): < 50 nM; toxic effects on growth at concentrations below 1 μM [1]: little or no toxic effects on growth; reduction of secreted TNF-α relative to vehicle treated cells (RAW 264.7 cells): exhibited anti-inflammatory activity
CCCCC1CC(=O)C(C(C)=O)C(=O)C1 (stereo not shown) [SRI# 22942, 1,3-cyclohexanedione, 2-acetyl-5-butyl-]			EC50 (DeaD strain BB579): < 50 nM; toxic effects on growth at concentrations below 1 μM [1]: little or no toxic effects on growth; reduction of secreted TNF-α relative to vehicle treated cells (RAW 264.7 cells): exhibited anti-inflammatory activity
CCC(=O)C1C(=O)CC(C2CC3C=CC2C3)CC1=O (stereo not shown) [SRI# 22965, 1,3-cyclohexanedione, 2-propanoyl-5-[bicyclo[2.2.1]hept-2-en-5-yl]-]			EC50 (DeaD strain BB579): < 50 nM; reduction of secreted TNF-α relative to vehicle treated cells (RAW 264.7 cells): exhibited anti-inflammatory activity
CCC(=O)C1C(=O)CC(C2CCCCC2)CC1=O (stereo not shown) [compound 22788]	2.74	3.4	average improvement, 0.5 to 100 nM (DeaD strain BB579): 1.75
CCC(=O)C1C(=O)CC(c2c(F)cccc2Cl)CC1=O (stereo not shown) [compound 22789]	2.62	2.61	average improvement, 0.5 to 100 nM (DeaD strain BB579): 1.30
CCC(=O)C1C(=O)CC(c2ccc(F)cc2)CC1=O (stereo not shown) [compound 22790]	2.64	2.85	average improvement, 0.5 to 100 nM (DeaD strain BB579): 1.37
CCC(=O)C1C(=O)CC(c2ccco2)CC1=O (stereo not shown) [compound 22791]	2.15	1.77	
COc1cc(OC)c(C2CC(=O)C(C(=O)C3CC3)C(=O)C2)c(OC)c1 (stereo not shown) [compound 22821]	1.62	1.27	
Cc1ccc(C2CC(=O)C(C(=O)C3CC3)C(=O)C2)cc1 (stereo not shown) [compound 22824]	1.42	1.32	
O=C1CC(c2ccc(F)cc2)CC(=O)C1C(=O)C1CC1 (stereo not shown) [compound 22835]	2.21	2.48	
CC(C)C(=O)C1C(=O)CC(c2ccc(F)cc2)CC1=O (stereo not shown) [compound 22837]	1.72		
CC(=O)C1C(=O)CC(c2ccc(Cl)cc2Cl)CC1=O (stereo not shown) [compound 22840]	1.87	2.24	
O=C1CC(C2CCCCC2)CC(=O)C1C(=O)c1ccccc1 (stereo not shown) [compound 22845]	2.11	1.99	
CC(=O)C1C(=O)CC(c2c(F)cccc2Cl)CC1=O (stereo not shown) [compound 22847]	2.17	3.25	
CC(=O)C1C(=O)CC(c2ccco2)CC1=O (stereo not shown) [compound 22848]	1.58		
CC(=O)C1C(=O)CC(c2ccc(F)cc2)CC1=O (stereo not shown) [compound 22850]	1.59		
CC(=O)C1C(=O)CC(C2CC3C=CC2C3)CC1=O (stereo not shown) [compound 22856]	2.18	3.18	
O=C1CC(c2ccccc2)CC(=O)C1C(=O)C1CC1 (stereo not shown) [compound 22878]	2.11	2.62	
CC(C)C(=O)C1C(=O)CC(c2ccccc2)CC1=O (stereo not shown) [compound 22880]	1.59	1.49	

SMILES	average improvement, 250 nM to 1μM (DeaD strain BB579)	fold induction at 0.125 µM (DeaD strain BB579)	also measured
O=C1CC(c2ccc(Cl)cc2Cl)CC(=O)C1C(=O)C1CC1 (stereo not shown) [compound 22889]	1.64		
CC(C)C(=O)C1C(=O)CC(c2ccc(Cl)cc2Cl)CC1=O (stereo not shown) [compound 22890]	1.46		
O=C1CC(c2cccs2)CC(=O)C1C(=O)C1CC1 (stereo not shown) [compound 22897]	1.85	1.25	
CC(C)C(=O)C1C(=O)CC(c2cccs2)CC1=O (stereo not shown) [compound 22898]	1.37		
CCCCCCC1CC(=O)C(C(C)=O)C(=O)C1 (stereo not shown) [compound 22926]	1.87	0.99	
CCCCCCC1CC(=O)C(C(=O)CC)C(=O)C1 (stereo not shown) [compound 22927]	1.43		
CCC(=O)C1C(=O)CC(c2cccs2)CC1=O (stereo not shown) [compound 22930]	2.33	2.21	
CC(=O)C1C(=O)CC(C(C)C)CC1=O (stereo not shown) [compound 22931]	2.09	1.86	
CCC(=O)C1C(=O)CC(C(C)C)CC1=O (stereo not shown) [compound 22932]	1.80	1.76	
CC(=O)C1C(=O)CC(c2cccs2)CC1=O (stereo not shown) [compound 22933]	2.55	2.71	average improvement, 0.5 to 100 nM (DeaD strain BB579): 1.70
CC(=O)C1C(=O)CC(c2ccc3c(c2)OCO3)CC1=O (stereo not shown) [compound 22935]	1.51		
CCC(=O)C1C(=O)CC(c2ccc3c(c2)OCO3)CC1=O (stereo not shown) [compound 22936]	1.46		
CC(=O)C1C(=O)CC(c2cn(C)c3ccccc23)CC1=O (stereo not shown) [compound 22939]	1.60		
CCC1CC(=O)C(C(C)=O)C(=O)C1 (stereo not shown) [compound 22941]	1.62		
CCCCC1CC(=O)C(C(C)=O)C(=O)C1 (stereo not shown) [compound 22942]	2.49	2.87	average improvement, 0.5 to 100 nM (DeaD strain BB579): 1.71
CCCCC1CC(=O)C(C(=O)CC)C(=O)C1 (stereo not shown) [compound 22943]	2.33	2.79	
CCCCCC1CC(=O)C(C(C)=O)C(=O)C1 (stereo not shown) [compound 22944]	2.28	2.72	average improvement, 0.5 to 100 nM (DeaD strain BB579): 1.21
CCCCCC1CC(=O)C(C(=O)CC)C(=O)C1 (stereo not shown) [compound 22945]	2.54	1.96	
CCCC(=O)C1C(=O)CC(c2cn(C)c3ccccc23)CC1=O (stereo not shown) [compound 22947]	1.64		
CCC(=O)C1C(=O)CC(C2CC3C=CC2C3)CC1=O (stereo not shown) [compound 22965]	2.57	3.65	average improvement, 0.5 to 100 nM (DeaD strain BB579): 1.72
